# In publication PMC7898037, “Improving mitochondria and ER stability helps eliminate upper motor neuron degeneration that occurs due to mSOD1 toxicity and TDP‐43 pathology” (Clinical and Translational Medicine, 2021):
# How the values were obtained:
# [1] = test system: prpTDP‐43^A315T‐UeGFP mice; assay: Hanging wire test (max 60 s), prpTDP‐43^A315T‐UeGFP mice; type: in vivo; settings: for wire hanging, Predicted (LS) mean: prpTDP-43A315T-UeGFP (NU-9 100 mg/kg/day); for wire hanging, Average: prpTDP-43A315T-UeGFP, NU-9 100 mg/kg/day po
# Protocol: (§1) hSOD1^G93A‐UeGFP, prpTDP‐43^A315T‐UeGFP and WT‐UeGFP mice were weighed and the required NU‐9 dose per weight was calculated (20 or 100 mg/kg), which was administered once daily by oral gavage, starting at postnatal day (P)60 and continuing until P120. Animals from the untreated group received the vehicle (NMP and olive oil) only. For oral administration purposes, 20 ga × 38 mm plastic feeding tubes were used (Instech Laboratories, Inc). The gavage tip was inserted into the mouth directly over the tongue and into the pharynx. While observing the swallowing reflex, the tip was safely and smoothly slid into the esophagus. Once the administration was completed, the gavage tip was pulled straight out.
# Behavior data were collected from hSOD1^G93A‐UeGFP and WT‐UeGFP mice (starting at P60 and every 7 days until P116) and from prpTDP‐43^A315T‐UeGFP mice (at P60, P90, and P120) with the following number of mice for each group: WT‐UeGFP vehicle (n = 10), hSOD1^G93A‐UeGFP vehicle (n = 6), WT‐UeGFP 20 mg/kg/day NU‐9 (n = 5), hSOD1^G93A‐UeGFP 20 mg/kg/day NU‐9 (n = 7), WT‐UeGFP 100 mg/kg/day NU‐9 (n = 11), hSOD1^G93A‐UeGFP 100 mg/kg/day NU‐9 (n = 9), prpTDP‐43^A315T‐UeGFP untreated (n ≥ 3), and prpTDP‐43^A315T‐UeGFP 100 mg/kg/day NU‐9 (n = 4) (Table S3).
# Mice were placed on a wire mesh, which was then inverted and suspended above the home cage; the time when the animal fell was recorded. This test was performed three times for a maximum of 60 s each session, with a 1‐min rest period between each trial. The average performance for each session is presented as the average of the three trials.
# [2] = parameters: method as in PMID 22189273, PMID 22837812; settings: cited from earlier work
# [3] = test system: UMNs of prpTDP‐43^A315T‐UeGFP mice; assay: EM quantification of mitochondria and ER in UMNs, prpTDP‐43^A315T‐UeGFP mice; type: in vivo
# Protocol: as §1
# Mice were perfused with EM grade 4% PFA. One hemisphere of the brain was sectioned at 50 µm thickness coronally on a vibratome (Leica VT1000S, Leica Inc., Nussloch, Germany). The sections were postfixed in 2% PFA and 0.5% glutaraldehyde for 1 h, they were cryoprotected with glycerol–dimethylsulfoxide (DMSO) mixture followed by freeze–thaw at least four times, and treated with 1% sodium borohydride. They were then treated with 0.3% H2O2–10% methanol in TBS (100 mM Tris–HCl and 150 mM NaCl, pH 7.6) and 5% normal goat serum–1% bovine serum albumin in TBS to block nonspecific binding of primary antibody. This mixture was incubated overnight with rat anti‐Ctip2 antibody (1:500, Thermo Fisher Scientific, Rockford, IL, USA). Biotinylated goat anti‐rat IgG (1:500, Vector Laboratories, Burlingame, CA, USA) was used as the secondary antibody, and diaminobenzidine (DAB) was applied as the chromogen (ABC Elite kit, Vector Laboratories, Burlingame, CA, USA). Sections were then postfixed in buffered 2% osmium tetroxide (OsO4) (Electron Microscopy Sciences, Hatfield, PA, USA), rinsed with distilled water, and stained in 1% uranyl acetate (Electron Microscopy Sciences, Hatfield, PA, USA), again rinsed with distilled water, dehydrated in ascending grades of ethanol with transition fluid propylene oxide (Electron Microscopy Sciences, Hatfield, PA, USA), embedded in the resin mixture with Embed 812 (Electron Microscopy Sciences, Hatfield, PA, USA), and cured in a 60°C oven for 3 days. The sections in which primary motor cortex was present and visible under bright‐field illumination on a dissecting scope were selected. Approximately, 5‐mm‐wide × 7‐mm‐long pieces of the motor cortex from these sections were dissected under the microscope mounted on a resin block and were sectioned on a Leica Ultracut UC6 ultramicrotome (Leica Inc., Nussloch, Germany). The motor cortex was further trimmed, and only layer 5 was kept intact for preparing ultrathin sections. UMNs were identified based on the presence of Ctip2 immunohistochemistry (DAB) in their nuclei (Figure S1). Seventy‐nanometer‐thin sections were collected on 200‐mesh copper–palladium grids. Grids were counterstained with 8% radioactive depleted uranyl acetate and 0.2% lead citrate. Grids were examined on FEI Tecnai Spirit G2 TEM (FEI company, Hillsboro, OR, USA), and digital images were captured on a FEI Eagle camera.
# EM images of Betz cells of normal control and patients, Ctip2‐positive (Ctip2^+) UMN of WT, and hSOD1^G93A‐UeGFP and prpTDP‐43^A315T‐UeGFP mice (Figure S1) were acquired from 70‐nm ultrathin sections of the motor cortex, and EM images were taken on FEI Tecnai Spirit G2 TEM using FEI Eagle camera. Mitochondria were quantified, as described previously. ^34 Mitochondria with intact outer and inner membrane and with intact cristae were considered healthy. Mitochondria with morphological defects, such as broken outer and/or inner membrane and cristae, were counted individually and were reported as percentage of defective mitochondria. ER that are disintegrated and that display profound expansion were considered unhealthy. Length of ER cisternae was measured using line tool of ImageJ software (NIH) upon calibration for pixels/micrometer using set scale function. […]
# Caco‐2 = test system: Caco‐2; parameters: method as in PMID 22189273, PMID 22837812; settings: cited from earlier work
# [4] = prpTDP-43A315T-UeGFP mice, NU-9 100 mg/kg/day
# [5] = prpTDP-43A315T-UeGFP untreated minus NU-9 100 mg/kg/day, Tukey's multiple comparisons test
# [6] = prpTDP‐43^A315T‐UeGFP mice, 100 mg/kg/day oral gavage P60–P120
smiles,measurement,setting,value
C[C@H](Oc1cc(C(F)(F)F)cc(C(F)(F)F)c1)C1CC(=O)CC(=O)C1 [NU‐9],"wire hanging, Predicted (LS) mean","[1]; P60, mixed-effects analysis",56.83
same,"wire hanging, Predicted (LS) mean","[1]; P90, mixed-effects analysis",57.17
same,"wire hanging, Predicted (LS) mean","[1]; P120, mixed-effects analysis",59.67
same,"wire hanging, Average",[1]; P60,55.7778
same,"wire hanging, Average",[1]; P90,56.2222
same,"wire hanging, Average",[1]; P120,59.5556
same,"hanging wire test, latency to fall","[1]; prpTDP‐43^A315T mice, 100 mg/kg/day, P120",59.5 ± 0.3 s
same,Plasma protein binding,[2],90%
same,"Mean Diff., Fig. 6J, TDP-43 vs. TDP-43 -NU9","[3]; prpTDP43A315T-UeGFP untreated minus NU-9 100 mg/kg/day, Tukey's multiple comparisons test",-0.8333
same,Fig. 6G group mean (total number of mitochondria/UMN),[3]; prpTDP-43A315T-UeGFP (NU-9 100 mg/kg/day),31.85
same,"Mean, Fig. 6H (EM quantification in UMNs)",[3]; [4],86.77
same,"Mean, Fig. 6I (EM quantification in UMNs)",[3]; [4],31.16
same,"Mean, Fig. 6J (EM quantification in UMNs)",[3]; [4],1.37
same,"Mean Diff., Fig. 6H, TDP-43 vs. TDP-43 -NU9",[3]; [5],-64.89
same,"Mean Diff., Fig. 6I, TDP-43 vs. TDP-43 -NU9",[3]; [5],-18.7
same,average number of intact ER cisternae in UMNs,[3]; [6],36 ± 2 ER cisternae/UMN/section
same,average percentage of healthy mitochondria,[3]; [6],87% ± 1%
same,total mitochondria per UMN per section,[3]; [6],32 ± 3 mitochondria/UMN/section
same,Caco‐2 A→B,Caco‐2,24.1 × 10^–6 cm/s
same,Caco‐2 B→A,Caco‐2,1.5 × 10^–6 cm/s
same,Caco‐2 Efflux ratio,Caco‐2,0.06
